US20030171406A1, “Medicinal compositions containing propenone derivatives” (priority 2000, published 2003)
Where two headings read alike, the source gives them in different places.

Key:
[1] = system: HIV (HTLV-IIIB strain); assay: MTT assay, MT-4 cells infected with HIV; type: cell-based; settings: 5 days, inhibits 50% of cell damage caused by virus
Description: The inhibitory effects of each anti-human immunodeficiency virus active substance against human immunodeficiency virus have been determined by MTT assay described below.
(1) Human T cell strain Molt-4 clone 8 persistently infected HIV (HTLV-IIIB strain) was cultivated in RPMI-1640 medium supplemented with 10% fatal bovine serum, and supernatant was filtered, measured RT activity, and stored at −80° C. On the other hand, each human anti-immunodeficiency virus active substance was diluted to fixed concentration in culture medium, they were plated to 96-well microtiter plate. Subsequently, 100 μL (3.5×10^4 cells) of MT-4 cell suspension was plated to 96-well microtiter plate, and then above mentioned supernatant containing HIV, which was diluted by culture medium, was added 50 μL (60 pfu (plaque forming unit.)) to 96-well microtiter plate.
(2) After cultivation at 37° C. for 5 days in CO2 incubator, into all well was added 30 μL per well 3-(4,5-[…])-2,5-diphenyltetrazolium bromide (MTT) 5 mg/mL) and PBS, and then incubated for 1 h.
In this time, alive cells reduced MTT and formazan was precipitated, therefore, 150 μL of cell supernatants were removed from all wells, and then 150 μL of lysate (10% triton X-100 and 0.4% (v/v) HCl-containing isopropanol) was added, and formazan was eluated on a plate shaker.

[2] = biological target: HIV-1 integrase (Human immunodeficiency virus type 1 group M subtype B, UniProt P12497); assay: HIV-1 integrase inhibition assay (microtiter plate, substrate/target DNA)
Description: Substrate DNA and target DNA, which sequences were indicated below, were synthesized by Amersham Pharmacia Biotech and dissolved in KTE buffer (composition: 100 mM KCl, 1 mM EDTA, 10 mM Tris-HCl (pH 7.6)) at concentration of 2 pmol/μL and 5 pmol/μL, respectively. The DNA solutions were annealed with each complement by slowly cooling after heating.
(2) Calculations of the percent inhibitions (the IC50 values of test compounds)
Streptavidin, obtained from Vector Laboratories, was dissolved in 0.1 M carbonate buffer (composition: 90 mM Na2CO3, 10 mM NaHCO3) at concentration of 40 μg/mL. After coating each well of microtiter plates (obtained from NUNC) with 50 μL of the above solution at 4° C. over night, each well was washed twice with PBS (composition: 13.7 mM NaCl, 0.27 mM KCl, 0.43 mM Na2HPO4, 0.14 mM KH2PO4) and blocked with 300 μL of 1% skim milk in PBS for 30 min. Additionally, each well was washed twice with PBS and added 50 μL of substrate DNA solution (2 pmol/μL). The microtiter plates were kept at room temperature for 30 min. Then, each well was washed twice with PBS and once with H2O.
Subsequently, in the each well prepared above were added 45 μL of the reaction buffer prepared from 12 μL of the buffer (composition: 150 mM MOPS (pH 7.2), 75 mM MnCl2, 50 mM 2-mercaptoethanol, 25% glycerol, 500 μg/mL bovine serum albumin-fraction V), 1 μL of target DNA (5 pmol/μL), and 32 μL of the distilled water. Additionally, 6 μL of either a test compound in DMSO or DMSO for positive control(PC) was mixed with the above reaction buffer, then 9 μL of an integrase solution (30 pmol) was added and mixed well. In the well of negative control (NC) was added 9 μL of the integrase dilution buffer (composition: 20 mM MOPS (pH7.2), 400 mM potassium glutamate, 1 mM EDTA, 0.1% NP-40, 20% glycerol, 1 mM DTT, 4M urea).
The microtiter plates were incubated at 30° C. for 1 hour. The reaction solution was removed and each well was washed twice with PBS. Subsequently, each well of the microtiter plates was filled with 100 μL of anti-digoxigenin antibody labeled with alkaline phosphatase (Sheep Fab fragment: obtained from Boehringer) and incubated at 30° C. for 1 hour. Then, each well was washed twice with 0.05% Tween20 in PBS and once with PBS. Next, 150 μL of the Alkaline phosphatase reaction buffer (composition: 10 mM p-Nitrophenylphosphate (obtained from Vector Laboratories), 5 mM MgCl2, 100 mM NaCl, 100 mM Tris-HCl (pH 9.5))was added in each well. […] The optical density (OD) at 405 nm of each well was measured and the percent inhibition was determined by the following expression.
The percent inhibition (%)=100[1-{(C abs.−NC abs.)/(PC abs.−NC abs.)}]
C abs.; the OD of the well of the compounds
NC abs.: the OD of the negative control (NC)
PC abs.: the OD of the positive control (PC)
IC50(μg/mL)=x-{(X-50)(x-y)/(X-Y)}

[3] = Human immunodeficiency virus 1, MT4, 120 h, read-out: EC50

With “5-[(:3,5-dichlorophenyl)thio]-4-(1-methylethyl)-1-(4-pyridynylmethyl)-1H-imidazole-2-methanol carbamate [Capravirine]” the EC50 [1] was 0.0014 mg/L.
Compound `Cc1c(O)cccc1C(=O)N[C@@H](CSc1ccccc1)[C@H](O)CN1C[C@H]2CCCC[C@H]2C[C@H]1C(=O)NC(C)(C)C` (relative stereo) [Nelfinavir, [3S-[2(2S*,3S*),3α,4aβ,8aβ]]-N-(1,1-dimethylethyl)-decahydro-2-[2-hydroxy-3-[(3-hydroxy-2-methylbenzoyl)amino]-4-(phenylthio)butyl]-3-isoquinolinecarboxamide] has an EC50 [1, 3] of 0.01 mg/L.
For `CC(C)c1nc(CN(C)C(=O)N[C@H](C(=O)N[C@@H](Cc2ccccc2)C[C@H](O)[C@H](Cc2ccccc2)NC(=O)OCc2cncs2)C(C)C)cs1` (relative stereo) [Ritonavir, [5S-(5R*,8R*,10R*,11R*)]-10-hydroxy-2-methyl-5-(1-methylethyl)-1-[2-(1-methylethyl)-4-thiazolyl]-3,6-dioxo-8,10-bis(phenylmethyl)-2,4,7,12-tetraazatridecane-13-hydroxy acid 5-thiazolylmethyl ester], the EC50 [1, 3] was 0.026 mg/L.
Work on `Nc1nc(NC2CC2)c2ncn([C@H]3C=C[C@@H](CO)C3)c2n1` [Abacavir] yielded an EC50 [1, 3] of 0.63 mg/L.
`O=C(C=C(O)c1nn[nH]n1)c1ccc(Cc2ccc(F)cc2)o1` [Compound I-3, 1-[5-(4-Fluorobenzyl)furan-2-yl]-3-hydroxy-3-(2H-tetrazol-5-yl)propenone] showed an IC50 [2] of 1.27 µM and a melting point of 121 to 123 °C.
Work on `O=C(C=C(O)c1nn[nH]n1)c1occc1Cc1ccc(F)cc1` [Compound I-11, 1-[3-(4-Fluorobenzyl)furan-2-yl]-3-hydroxy-3-(2H-tetrazol-5-yl)propenone] yielded an IC50 [2] of 1.34 µM and a melting point of 171 to 174 °C.
For `O=C(C=C(O)c1nc[nH]n1)c1occc1Cc1ccc(F)cc1` [Compound I-12, 1-[3-(4-Fluorobenzyl)furan-2-yl]-3-hydroxy-3-(1H-1,2,4-triazol-3-yl)propenone], the IC50 [2] was 1.37 µM and the melting point was 221 to 223 °C.
In the case of `CCCn1cc(Cc2ccc(F)cc2)c(C(=O)C=C(O)c2nc[nH]n2)c1` [Compound I-17, 1-[[4-(4-Fluorobenzyl)-1-propyl]pyrrol-3-yl]-3-hydroxy-3-(1H-1,2,4-triazol-3-yl)propenone], the IC50 [2] is reported as 4.51 µM and the melting point is reported as 210 to 211 °C.
`O=C(C=C(O)c1nc[nH]n1)c1c[nH]cc1Cc1ccc(F)cc1` [Compound I-19, 1-[4-(4-fluorobenzyl)pyrrol-3-yl]-3-hydroxy-3-(1H-1,2,4-triazol-3-yl)propenone] gave an IC50 [2] of 2.02 µM and a melting point of 210 to 213 °C.
Compound `O=C(C=C(O)c1nn[nH]n1)c1ccoc1Cc1ccc(F)cc1` [Compound I-20, 1-[2-(4-Fluorobenzyl)furan-3-yl]-3-hydroxy-3-(2H-tetrazol-5-yl)propenone] has an IC50 [2] of 1.02 µM and a melting point of 150 to 153 °C.
`O=C(C=C(O)c1nn[nH]n1)c1cn(S(=O)(=O)c2ccccc2)cc1CCc1ccccc1` [Compound I-21, 1-[[1-Benzenesulfonyl-4-(2-phenylethyl)]pyrrol-3-yl]-3-hydroxy-3-(2H-tetrazol-5-yl)propenone] gave an IC50 [2] of 1.2 µM and a melting point of 178 to 181 °C.
`O=C(C=C(O)c1nn[nH]n1)c1c[nH]cc1CCc1ccccc1` [Compound I-22, 3-Hydroxy-1-[(4-(2-phenylethyl))pyrrol-3-yl]-3-(2H-tetrazol-5-yl)propenone] gave an IC50 [2] of 1.91 µM and a melting point of 228 to 230 °C.
Compound `O=C(C=C(O)c1nc[nH]n1)c1ccoc1Cc1ccc(F)cc1` [Compound I-25, 1-[2-(4-Fluorobenzyl)furan-3-yl]-3-hydroxy-3-(1H-1,2,4-triazol-3-yl)propenone] has an IC50 [2] of 1.53 µM and a melting point of 144 to 147 °C.
Compound `O=C(C=C(O)c1nc[nH]n1)c1cc(C(=O)O)n(Cc2ccccc2)c1` [Compound I-29, 1-[(1-Benzyl-5-carboxy)pyrrol-3-yl]-3-hydroxy-3-(1H-1,2,4-triazol-3-yl)propenone] has an IC50 [2] of 2.96 µM and a melting point of 264 to 265 °C.
For `O=C(C=C(O)c1ccccn1)c1ccc(Cc2ccc(F)cc2)o1` [Compound I-46, 1-[5-(4-Fluorobenzyl)furan-2-yl]-3-hydroxy-3-(pyridin-2-yl)propenone], the IC50 [2] was 1.36 µM and the melting point was 84 to 85 °C.
`O=C(C=C(O)c1ncccn1)c1ccc(Cc2ccc(F)cc2)o1` [Compound I-47, 1-[5-(4-Fluorobenzyl)furan-2-yl]-3-hydroxy-3-(pyrimidin-2-yl)propenone] showed an IC50 [2] of 1.08 µM.
Compound `O=C(C=C(O)c1ccccn1)c1cnc(Cc2ccc(F)cc2)o1` [Compound I-50, 1-[2-(4-Fluorobenzyl)oxazol-5-yl]-3-hydroxy-3-(pyridin-2-yl)propenone] has an IC50 [2] of 1.23 µM and a melting point of 108 to 109 °C.
Compound `O=C(C=C(O)c1ncccn1)c1cnc(Cc2ccc(F)cc2)o1` [Compound I-51, 1-[2-(4-Fluorobenzyl)oxazol-5-yl]-3-hydroxy-3-(pyrimidin-2-yl)propenone] has an IC50 [2] of 1.48 µM and a melting point of 97 to 100 °C.
With `CC(C)Nc1cccnc1N1CCN(C(=O)c2cc3cc(NS(C)(=O)=O)ccc3[nH]2)CC1` [Delavirdine, 1-[5-methanesulfonamideindolyl-2-carbonyl]-4-[3-(1-methylethylamino)-2-pyridyl]piperadine] the EC50 [1, 3] was 0.012 mg/L.
In the case of `O=c1[nH]cnc2c1ncn2C1CCC(CO)O1` (stereo not shown) [Didanosine, 2′,3′-dideoxyinosine], the EC50 [1, 3] is reported as 0.64 mg/L.
With `O=C1Nc2ccc(Cl)cc2C(C#CC2CC2)(C(F)(F)F)O1` [Efavirenz, (S)-(−)-6-chloro-4-(chloropropylethynyl)-1,4-dihydro-4-(trifluoromethyl)-2H-3,1-benzoxazin-2-one] the EC50 [1, 3] was 0.00058 mg/L.
Compound `CCOCn1c(Cc2ccccc2)c(C(C)C)c(=O)[nH]c1=O` [Emivirine, 6-benzyl-1-(ethoxymethyl)-5-isopropyluracil] has an EC50 [1, 3] of 0.0045 mg/L.
`CC(C)(C)NC(=O)[C@@H]1CN(Cc2cccnc2)CCN1CC(O)C[C@@H](Cc1ccccc1)C(=O)N[C@H]1c2ccccc2C[C@H]1O` (stereo partly drawn) [Indinavir, [1(1S,2R),5(s)]-2,3,5-trideoxy-N-(2,3-dihydro-2-hydroxy-1H-inden-1-yl)-5-[2-{[(1,1-dimethylethyl)amino]carbonyl}-4-(3-pyridinylmethyl)-1-piperadinyl]-2-(phenylmethyl)-D-erythro-pentonamide] showed an EC50 [1, 3] of 0.014 mg/L.
Work on `Cc1ccnc2c1NC(=O)c1cccnc1N2C1CC1` [Nevirapine] yielded an EC50 [1, 3] of 0.02 mg/L.
`CC(C)(C)NC(=O)[C@@H]1C[C@@H]2CCCC[C@@H]2CN1C[C@@H](O)[C@H](Cc1ccccc1)NC(=O)[C@H](CC(N)=O)NC(=O)c1ccc2ccccc2n1` [Saquinavir, N-tert-butyl-decahydro-2-[2(R)-hydroxy-4-phenyl-3(S)-{[N-(2-quinolylcarbony)-L-asparginyl]amino}butyl]-(4aS,8aS)-isoquinoline-3(S)-carboxamide] showed an EC50 [1, 3] of 0.0037 mg/L.
Work on `Nc1ccn([C@H]2CC[C@@H](CO)O2)c(=O)n1` [Zalcitabine, 2′,3′-dideoxycytidine] yielded an EC50 [1, 3] of 0.017 mg/L.
Compound “(±)-α-[(2-acetyl-5-methylphenyl)amino]-2,6-dichlorobenzeneacetomide [Loviride]” has an EC50 [1] of 0.011 mg/L.
